{
  "source": "patent US12453719B2",
  "about": "“Treatment method using a complex of angiotensin II receptor antagonist metabolite and NEP inhibitor” (Shenzhen Salubris Pharmaceuticals Co., Ltd., priority 2019, dated 2025)",
  "origin": "cited, not measured here",
  "key": {"[1]": {"settings": "single oral administration of Losartan"}, "[2]": {"settings": "arithmetic mean"}},
  "note": "Read-outs that look alike come from different tables or passages of the source.",
  "data": [
    {"smiles": "CCCCc1nc(Cl)c(CO)n1Cc1ccc(-c2ccccc2-c2nn[nH]n2)cc1", "note": "[Losartan]", "values": [
      {"measurement": "in vivo EXP3174 exposure (AUC) relative to the prototype drug", "setting": "[1]", "value": "about four"},
      {"measurement": "AUC Losartan", "setting": "[2]; single administration of Losartan 40 mg (n = 15)", "value": 391.5, "unit": "ng·h/mL"},
      {"measurement": "AUC Losartan", "setting": "[2]; single administration of Losartan 50 mg (n = 12)", "value": 395.0, "unit": "ng·h/mL"},
      {"measurement": "AUC Losartan", "setting": "[2]; single administration of Losartan 80 mg (n = 8)", "value": 932.7, "unit": "ng·h/mL"},
      {"measurement": "AUC Losartan", "setting": "[2]; single administration of Losartan 120 mg (n = 8)", "value": 1277.7, "unit": "ng·h/mL"},
      {"measurement": "AUC Losartan", "setting": "[2]; single administration of Losartan 150 mg (n = 8)", "value": 1678.0, "unit": "ng·h/mL"},
      {"measurement": "AUC Losartan", "setting": "[2]; single administration of Losartan 200 mg (n = 15)", "value": 2371.6, "unit": "ng·h/mL"},
      {"measurement": "AUC Losartan", "setting": "[2]; single administration of Losartan 250 mg (n = 7)", "value": 2567.3, "unit": "ng·h/mL"},
      {"measurement": "AUC Losartan", "setting": "[2]; single administration of Losartan 300 mg (n = 7)", "value": 3492.4, "unit": "ng·h/mL"}
    ]}
  ]
}
